Laboratory results published in US8916526B2, “Flavanone derivative” (National University Corporation Okayama University, priority 2009, dated 2014).
In brackets after ≈: the same amount, converted by molar mass. Read-outs that look alike come from different tables or passages of the source.

Experiments:
[1] = test system: Streptococcus pneumoniae R6; experiment: In vitro infectivity assay (MIC), Exp. Ex. 2-1; format: cell-based; details: Gram-positive, microdilution, MIC after 24 h
[2] = test system: Methicillin sensitive S. aureus 209P; experiment: In vitro infectivity assay (MIC), Exp. Ex. 2-1; format: cell-based, Staphylococcus aureus; details: Gram-positive, microdilution, MIC after 24 h
Experimental: (§1) The antibacterial activities were measured based on broth dilution techniques of international standards (Clinical Laboratory Standards Institute: CLSI). The activities were shown by minimum inhibitory concentrations (MICs) determined by inoculating the above-mentioned strains at a concentration of about 10^5 […] into Mueller-Hinton broth (manufactured by Difco) containing 0.85% NaCl in 96-well microplates and incubating the plates at 35° C. for 24 hours. Measurement was carried out three times.
(§2) The antibacterial activities of the compounds of the present invention against various strains such as vancomycin-resistant enterococci (VRE), vancomycin intermediate-resistant Staphylococcus aureus (VISA), methicillin-resistant Staphylococcus aureus (MRSA), and methicillin-sensitive Staphylococcus aureus (MSSA) were examined. Of the bacteria used in MIC measurement in this test example, clinical bacteria of MRSA (OM481 strain and OM584 strain) were supplied from Okayama University Hospital (Japan). An MRSA strain N315, a vancomycin intermediate-resistant Staphylococcus aureus (VISA) strain Mu50, and a methicillin-sensitive Staphylococcus aureus (MSSA) strain FDA 209P were used as controls. Vancomycin-resistant enterococcus (VRE) strains NCTC 12201 and FN-1 were supplied from the National Institute of Infectious Disease (Japan).

[3] = test system: Methicillin-resistant S. aureus OM481; experiment: In vitro infectivity assay (MIC), Exp. Ex. 2-1; format: cell-based, Staphylococcus aureus; details: Gram-positive, microdilution, MIC after 24 h
Experimental: as §1, §2

[4] = test system: Methicillin-resistant S. aureus COL; experiment: In vitro infectivity assay (MIC), Exp. Ex. 2-1; format: cell-based, Staphylococcus aureus; details: Gram-positive, microdilution, MIC after 24 h
Experimental: as §1, §2

[5] = test system: Methicillin-resistant S. aureus N315; experiment: In vitro infectivity assay (MIC), Exp. Ex. 2-1; format: cell-based, Staphylococcus aureus; details: Gram-positive, microdilution, MIC after 24 h
Experimental: as §1, §2

[6] = test system: Methicillin-resistant S. aureus OM584; experiment: In vitro infectivity assay (MIC), Exp. Ex. 2-1; format: cell-based, Staphylococcus aureus; details: Gram-positive, microdilution, MIC after 24 h
Experimental: as §1, §2

[7] = biological target: T1, Staphylococcus aureus Topoisomerase IV (Staphylococcus aureus, UniProt P0C1S7+P0C1U9); experiment: Topoisomerase IV inhibition (decatenation kit), Exp. Ex. 2-3; format: biochemical
T1 construct: purchased John Innes Enterprises
Experimental: (§3) Staphylococcus aureus Topoisomerase IV and Escherichia coli Topoisomerase IV were purchased from John Innes Enterprises. 1 unit of topoisomerase IV was cultured with 200 ng of kinetoplast DNA (kDNA) in 30 L of a reaction solution at 37° C. for 30 minutes under the conditions of 50 mM Tris-HCl (pH 7.5) (S. aureus)/50 mM HEPES-KOH (pH 7.6) (E. coli), 5 mM MgCl2 (S. aureus)/5 mM magnesium acetate (E. coli), 350 mM potassium glutamate (S. aureus)/100 mM potassium glutamate (E. coli), 5 mM dithiotheri (S. aureus)/10 mM dithiotheri (E. coli), 1.5 mM ATP (S. aureus)/1 mM ATP (E. coli), and 40% (w/v) glycerol. The reactions were stopped by adding 8 L of a reaction stop solution (40% sucrose, 100 mM Tris.HCl (pH 7.5), 1 mM EDTA, 0.5 mg/ml bromophenol blue). Agarose gel (1.0%) was poured into TAE (40 mM Tris acetate, 2 mM EDTA).

[8] = biological target: T2, Escherichia coli Topoisomerase IV (Escherichia coli, UniProt P0AFI2+P20083); experiment: as above; format: biochemical; details: decatenation of kDNA, 37° C., 30 minutes; read-out: IC50 (E. coli topoisomerase IV inhibitions)
T2 construct: purchased John Innes Enterprises
Experimental: as §3

[9] = test system: Pseodomonas aeruginosa PAOI; experiment: Antibacterial activity (MIC) against Gram-negative strains, microdilution; format: cell-based; details: MIC after 24 h
Experimental: as §1

Escherichia coli K-12 = experiment: as above; format: cell-based; details: for MIC (Gram-nagative) K-12: MIC after 24 h
Experimental: as §1

E. coli DNA gyrase = biological target: T3, E. coli DNA gyrase (Escherichia coli, UniProt P0AES4+P0AES6); experiment: DNA gyrase inhibition (supercoiling kit), Exp. Ex. 2-2; format: biochemical
T3 construct: purchased John Innes Enterprises #K0001
Experimental: As a kit for measurement of DNA gyrase of Escherichia coli, a product purchased from John Innes Enterprises (Gyrase Supercoiling assay kit #K0001) was used. Relaxed DNA was modified with gyrase into supercoiled DNA, and reaction products were separated by electrophoresis depending on the sizes of the molecular weights to examine anti-gyrase effects (IC50). 1 unit (1 U) of DNA gyrase and […] of relaxed pBR322 DNA were added to […] of the reaction solution, and the mixture was allowed to react at 37° C. for 30 minutes in the presence of 35 mM Tris-HCl (pH 7.5), 24 mM KCl, 4 mM MgCl2, 2 mM DTT, 1.8 mM spermidine, 1 mM ATP, 6.5% (w/v) glycerol, and 0.1 mg/ml BSA. The reactions were stopped using […] of a reaction stop solution (40% sucrose, 100 mM Tris-HCl (pH 7.5), 1 mM EDTA, 0.5 mg/ml bromophenol blue).

[10] = test system: Vancomycin intermediate-resistant Staphylococcus aureus Mu50; experiment: In vitro infectivity assay (MIC), Exp. Ex. 2-1; format: cell-based; details: Gram-positive, microdilution, MIC after 24 h
Experimental: as §1, §2

[11] = test system: Vancomycin-resistant enterococci FN-1; experiment: In vitro infectivity assay (MIC), Exp. Ex. 2-1; format: cell-based; details: Gram-positive, microdilution, MIC after 24 h
Experimental: as §1, §2

[12] = test system: Vancomycin-resistant enterococci NCTC 12201; experiment: In vitro infectivity assay (MIC), Exp. Ex. 2-1; format: cell-based; details: Gram-positive, microdilution, MIC after 24 h
Experimental: as §1, §2

[13] = decatenation of kDNA, 37° C., 30 minutes, read-out: IC50 (S. aureus topoisomerase IV inhibitions)
[14] = supercoiling activity, 37° C., 30 minutes, read-out: IC50 (E. coli DNA gyrase inhibitions)

T2 sequence (P20083 whole entry): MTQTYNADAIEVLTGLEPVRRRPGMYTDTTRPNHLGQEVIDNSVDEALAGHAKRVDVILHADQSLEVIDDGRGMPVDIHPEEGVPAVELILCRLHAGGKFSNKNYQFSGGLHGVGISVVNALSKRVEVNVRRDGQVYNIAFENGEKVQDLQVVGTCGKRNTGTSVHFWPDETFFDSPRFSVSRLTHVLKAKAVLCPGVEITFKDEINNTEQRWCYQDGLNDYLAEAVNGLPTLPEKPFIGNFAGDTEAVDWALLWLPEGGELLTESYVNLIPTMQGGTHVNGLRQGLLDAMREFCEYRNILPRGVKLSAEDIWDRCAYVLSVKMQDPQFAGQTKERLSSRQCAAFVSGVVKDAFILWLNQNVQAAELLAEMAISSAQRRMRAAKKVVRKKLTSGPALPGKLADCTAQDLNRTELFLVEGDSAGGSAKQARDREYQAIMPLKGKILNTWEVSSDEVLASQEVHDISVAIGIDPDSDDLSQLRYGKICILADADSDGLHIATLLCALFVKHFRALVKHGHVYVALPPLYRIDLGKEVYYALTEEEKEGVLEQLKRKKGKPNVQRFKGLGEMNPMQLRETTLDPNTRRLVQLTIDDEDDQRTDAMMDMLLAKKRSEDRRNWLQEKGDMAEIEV
T2 sequence (P0AFI2 whole entry): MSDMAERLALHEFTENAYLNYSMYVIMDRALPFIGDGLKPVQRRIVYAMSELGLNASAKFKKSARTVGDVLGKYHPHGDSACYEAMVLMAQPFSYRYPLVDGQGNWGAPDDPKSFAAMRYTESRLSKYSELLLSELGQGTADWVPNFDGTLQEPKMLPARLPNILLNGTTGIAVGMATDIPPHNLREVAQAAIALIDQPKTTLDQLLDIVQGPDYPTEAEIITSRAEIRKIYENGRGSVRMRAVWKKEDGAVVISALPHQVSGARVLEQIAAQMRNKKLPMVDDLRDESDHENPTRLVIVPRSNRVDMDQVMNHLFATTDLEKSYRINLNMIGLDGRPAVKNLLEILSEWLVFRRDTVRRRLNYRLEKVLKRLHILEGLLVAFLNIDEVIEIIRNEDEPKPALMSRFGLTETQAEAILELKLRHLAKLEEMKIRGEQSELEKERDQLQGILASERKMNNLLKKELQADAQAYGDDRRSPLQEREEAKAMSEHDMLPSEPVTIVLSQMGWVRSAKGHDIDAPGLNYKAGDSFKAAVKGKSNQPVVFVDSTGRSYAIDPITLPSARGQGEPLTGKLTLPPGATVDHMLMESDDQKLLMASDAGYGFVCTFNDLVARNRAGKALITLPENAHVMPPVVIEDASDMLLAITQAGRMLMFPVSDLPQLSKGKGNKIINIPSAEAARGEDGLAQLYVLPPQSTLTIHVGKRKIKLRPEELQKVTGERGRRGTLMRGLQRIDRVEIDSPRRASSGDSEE
T3 sequence (P0AES4 whole entry, one chain of several): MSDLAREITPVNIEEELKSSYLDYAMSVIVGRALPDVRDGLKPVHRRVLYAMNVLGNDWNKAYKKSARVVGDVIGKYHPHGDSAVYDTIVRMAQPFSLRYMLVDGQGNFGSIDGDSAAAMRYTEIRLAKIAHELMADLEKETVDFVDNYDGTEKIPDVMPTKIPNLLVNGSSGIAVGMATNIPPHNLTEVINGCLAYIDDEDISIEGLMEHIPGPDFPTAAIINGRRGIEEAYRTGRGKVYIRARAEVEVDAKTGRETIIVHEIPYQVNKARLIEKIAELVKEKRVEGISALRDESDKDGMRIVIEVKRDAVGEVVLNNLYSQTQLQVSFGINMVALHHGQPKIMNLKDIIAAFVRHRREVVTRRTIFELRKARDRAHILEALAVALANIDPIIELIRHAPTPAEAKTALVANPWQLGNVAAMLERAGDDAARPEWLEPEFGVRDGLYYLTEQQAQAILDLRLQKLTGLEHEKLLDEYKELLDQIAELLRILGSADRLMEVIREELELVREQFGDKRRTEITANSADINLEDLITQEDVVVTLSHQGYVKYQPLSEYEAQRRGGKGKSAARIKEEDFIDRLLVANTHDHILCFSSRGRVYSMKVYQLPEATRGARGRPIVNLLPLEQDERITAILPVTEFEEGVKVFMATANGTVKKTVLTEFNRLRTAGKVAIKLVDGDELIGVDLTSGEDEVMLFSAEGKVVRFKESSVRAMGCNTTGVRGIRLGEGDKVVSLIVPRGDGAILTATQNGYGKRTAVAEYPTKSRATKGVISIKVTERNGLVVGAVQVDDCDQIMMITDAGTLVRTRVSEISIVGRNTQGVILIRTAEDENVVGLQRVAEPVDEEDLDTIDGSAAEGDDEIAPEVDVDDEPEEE
T1 sequence (P0C1U9 whole entry): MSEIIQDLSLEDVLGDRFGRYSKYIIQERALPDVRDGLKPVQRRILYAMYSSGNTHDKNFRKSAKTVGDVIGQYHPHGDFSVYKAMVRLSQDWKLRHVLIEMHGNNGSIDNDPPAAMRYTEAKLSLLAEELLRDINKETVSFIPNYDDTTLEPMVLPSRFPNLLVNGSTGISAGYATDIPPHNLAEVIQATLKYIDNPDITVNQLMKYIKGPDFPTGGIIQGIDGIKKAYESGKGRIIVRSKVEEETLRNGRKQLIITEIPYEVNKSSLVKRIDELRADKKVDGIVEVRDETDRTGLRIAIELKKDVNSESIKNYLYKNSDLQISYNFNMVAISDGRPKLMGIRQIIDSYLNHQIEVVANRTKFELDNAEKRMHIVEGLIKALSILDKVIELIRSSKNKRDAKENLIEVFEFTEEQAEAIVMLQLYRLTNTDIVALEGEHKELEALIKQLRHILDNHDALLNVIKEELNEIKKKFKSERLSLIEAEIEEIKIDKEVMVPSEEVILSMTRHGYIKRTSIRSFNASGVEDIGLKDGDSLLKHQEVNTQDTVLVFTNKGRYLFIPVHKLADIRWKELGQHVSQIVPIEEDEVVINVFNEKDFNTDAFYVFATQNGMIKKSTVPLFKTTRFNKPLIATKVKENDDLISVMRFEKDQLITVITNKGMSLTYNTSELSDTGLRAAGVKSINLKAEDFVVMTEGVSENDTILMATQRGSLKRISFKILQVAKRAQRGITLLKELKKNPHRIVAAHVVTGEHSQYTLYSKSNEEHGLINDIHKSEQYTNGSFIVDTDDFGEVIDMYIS
T1 sequence (P0C1S7 whole entry): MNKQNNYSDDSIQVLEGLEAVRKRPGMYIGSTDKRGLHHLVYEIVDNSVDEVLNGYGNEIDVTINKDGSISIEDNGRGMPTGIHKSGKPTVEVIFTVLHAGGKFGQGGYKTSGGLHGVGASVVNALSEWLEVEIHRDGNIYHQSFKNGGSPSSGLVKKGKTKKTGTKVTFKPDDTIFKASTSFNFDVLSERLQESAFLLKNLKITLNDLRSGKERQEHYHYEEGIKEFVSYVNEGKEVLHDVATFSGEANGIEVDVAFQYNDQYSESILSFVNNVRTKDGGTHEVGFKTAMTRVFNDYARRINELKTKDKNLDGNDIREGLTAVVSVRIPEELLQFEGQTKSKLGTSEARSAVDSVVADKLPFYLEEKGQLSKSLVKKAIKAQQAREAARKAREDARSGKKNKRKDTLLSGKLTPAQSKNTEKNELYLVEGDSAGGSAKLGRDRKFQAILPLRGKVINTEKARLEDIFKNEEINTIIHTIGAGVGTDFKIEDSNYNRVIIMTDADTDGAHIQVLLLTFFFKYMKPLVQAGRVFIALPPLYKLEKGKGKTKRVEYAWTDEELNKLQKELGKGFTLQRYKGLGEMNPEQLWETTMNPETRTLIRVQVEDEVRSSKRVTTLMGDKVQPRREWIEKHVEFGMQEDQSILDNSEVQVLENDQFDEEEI

SMILES | MIC S. Pneumoniae R6 [1] | MIC MSSA 209P [2] | MIC MRSA OM481 [3] | MIC MRSA COL [4] | MIC MRSA N315 [5] | MIC MRSA OM584 [6] | IC50 [7, 13] | IC50 [8] | MIC (Gram-nagative) PAO1 [9] | MIC (Gram-nagative) K-12 (Escherichia coli K-12) | IC50 (E. coli DNA gyrase; [14]) | MIC VISA Mu50 [10] | MIC VRE FN-1 [11] | MIC VRE NCTC 12201 [12] | also measured
O=C(CCc1ccc(F)cc1)OC[C@H]1O[C@@H](Oc2c(-c3ccc(O)c(O)c3)oc3cc(O)cc(O)c3c2=O)[C@H](OC(=O)CCc2ccc(F)cc2)[C@@H](O)[C@H]1O [Compound 14i, 2-(3′,4′-Dihydroxyphenyl)-5,7-dihydroxy-3-β-D-{2″,6″-di-O-[3′″-(4-fluorophenylpropanoyl)]}galactosyl-4H-chromen-4-one] | 0.13 µg/mL (≈ 0.17 µM) | 0.13 µg/mL (≈ 0.17 µM) | 0.13 µg/mL (≈ 0.17 µM) | 0.5 µg/mL (≈ 0.654 µM) | 0.13 µg/mL (≈ 0.17 µM) | 0.13 µg/mL (≈ 0.17 µM) | 220 nM | 7.16 µM | >128 µg/mL | >128 µg/mL | 780 nM | 0.5 µg/mL (≈ 0.654 µM) | 0.25 µg/mL (≈ 0.327 µM) | 0.25 µg/mL (≈ 0.327 µM) | –
O=C(CCCc1ccc(F)cc1)OC[C@H]1O[C@@H](Oc2c(-c3ccc(O)c(O)c3)oc3cc(O)cc(O)c3c2=O)[C@H](OC(=O)CCCc2ccc(F)cc2)[C@@H](O)[C@H]1O [Compound 14j, 2-(3′,4′-Dihydroxyphenyl)-5,7-dihydroxy-3-β-D-{2″,6″-di-O-[3′″-(4-fluorophenylbutanoyl)]}galactosyl-4H-chromen-4-one] | 2 µg/mL (≈ 2.52 µM) | 4 µg/mL (≈ 5.05 µM) | 2 µg/mL (≈ 2.52 µM) | 16 µg/mL (≈ 20.2 µM) | 4 µg/mL (≈ 5.05 µM) | 2 µg/mL (≈ 2.52 µM) | 2940 nM | 8.96 µM | >128 µg/mL | >128 µg/mL | 2980 nM | 4 µg/mL (≈ 5.05 µM) | 8 µg/mL (≈ 10.1 µM) | 8 µg/mL (≈ 10.1 µM) | –
O=C(CCCCc1ccc(F)cc1)OC[C@H]1O[C@@H](Oc2c(-c3ccc(O)c(O)c3)oc3cc(O)cc(O)c3c2=O)[C@H](OC(=O)CCCCc2ccc(F)cc2)[C@@H](O)[C@H]1O [Compound 14k, 2-(3′,4′-Dihydroxyphenyl)-5,7-dihydroxy-3-β-D-{2″,6″-di-O-[3′″-(4-fluorophenylpentanoyl)]}galactosyl-4H-chromen-4-one] | 8 µg/mL (≈ 9.75 µM) | 4 µg/mL (≈ 4.87 µM) | 4 µg/mL (≈ 4.87 µM) | 16 µg/mL (≈ 19.5 µM) | 2 µg/mL (≈ 2.44 µM) | 4 µg/mL (≈ 4.87 µM) | 4050 nM | > 12 µM | >128 µg/mL | >128 µg/mL | 5020 nM | 16 µg/mL (≈ 19.5 µM) | 16 µg/mL (≈ 19.5 µM) | 16 µg/mL (≈ 19.5 µM) | –
Cc1ccc(CCC(=O)OCC2OC(Oc3c(-c4ccc(O)c(O)c4)oc4cc(O)cc(O)c4c3=O)C(OC(=O)CCc3ccc(C)cc3)C(O)C2O)cc1 [Compound 14l, 2-(3′,4′-Dihydroxyphenyl)-5,7-dihydroxy-3-β-D-{2″,6″-di-O-[3′″-(4-methylphenylpropanoyl)]}galactosyl-4H-chromen-4-one] | – | – | – | – | – | – | – | 7.99 µM | – | – | – | – | – | – | MIC ([1]; Streptococcus pneumoniae, R6, read-out: MIC S. Pneumoniae R6): 32 µg/mL (≈ 42.3 µM); MIC ([2]; Staphylococcus aureus, 209P / MSSA, read-out: MIC MSSA 209P): 16 µg/mL (≈ 21.1 µM); MIC ([3]; Staphylococcus aureus, MRSA, read-out: MIC MRSA OM481): 16 µg/mL (≈ 21.1 µM); MIC ([4]; Staphylococcus aureus, MRSA): 32 µg/mL (≈ 42.3 µM); MIC ([5]; Staphylococcus aureus, MRSA, read-out: MIC MRSA N315): 16 µg/mL (≈ 21.1 µM); MIC ([6]; Staphylococcus aureus, MRSA, read-out: MIC MRSA OM584): 16 µg/mL (≈ 21.1 µM); IC50 [7]: 2570 nM; MIC ([9]; read-out: MIC (Gram-nagative) PAO1): > 128 µg/mL; MIC (Escherichia coli K-12; K12, MIC after 24 h, read-out: MIC (Gram-nagative) K-12): > 128 µg/mL; IC50 (E. coli DNA gyrase): 1790 nM; MIC ([10]; Staphylococcus aureus, VISA, read-out: MIC VISA Mu50): 16 µg/mL (≈ 21.1 µM); MIC ([11]; Enterococcus, VRE, read-out: MIC VRE FN-1): 32 µg/mL (≈ 42.3 µM); MIC ([12]; Enterococcus, NCTC 12201 / VRE, read-out: MIC VRE NCTC 12201): 32 µg/mL (≈ 42.3 µM)
O=C(CCc1ccc(F)cc1)OC[C@H]1O[C@@H](Oc2c(-c3ccc(O)c(O)c3)oc3cc(O)cc(O)c3c2=O)[C@H](OC(=O)CCc2ccc(F)cc2)[C@@H](O)[C@H]1O [Compound 14m, 2-(3′,4′-Dihydroxyphenyl)-5,7-dihydroxy-3-β-D-{2″,6″-di-O-[3′″-(4-fluorophenylpropanoyl)]}galactosyl-4H-chromen-4-one] | 32 µg/mL (≈ 41.8 µM) | 16 µg/mL (≈ 20.9 µM) | 16 µg/mL (≈ 20.9 µM) | 32 µg/mL (≈ 41.8 µM) | 16 µg/mL (≈ 20.9 µM) | 16 µg/mL (≈ 20.9 µM) | 2990 nM | 7.52 µM | >128 µg/mL | >128 µg/mL | 1400 nM | 32 µg/mL (≈ 41.8 µM) | 16 µg/mL (≈ 20.9 µM) | 16 µg/mL (≈ 20.9 µM) | –
